{"source": "patent US12114655B2", "about": "“Agricultural compositions and methods of use thereof” (Valent U.S.A. LLC, priority 2019, dated 2024)", "tested_on": "corn", "experiment": "Spray chamber treatment of corn plots grown to 12 inches: efficacy of clethodim with or without mannitol or sorbitol", "format": "in vivo", "conditions": "14 days after treatment; clethodim 55.4 g/HA, mannitol or sorbitol 6800 g/HA where present; all compositions with 1% v/v Agridex and 0.25% v/v Induce; corn 12 inches in height", "description": "4 trials were conducted on the efficacy of clethodim with or without mannitol or sorbitol. Specifically, 4 plots of corn were grown to 12 inches in height. These plots were placed in a spray chamber for treatment. All compositions contained 1% v/v of Agridex® and 0.25% v/v of Induce®. Treatments and results can be found in Table 1, below.", "data": [{"smiles": "CCSC(C)CC1CC(=O)C(/C(CC)=N/OC/C=C/Cl)=C(O)C1", "note": "(stereo not shown) [Clethodim, clethodim]", "values": [{"measurement": "Days After Treatment (% control) 14", "result": 20.8, "unit": "% control"}]}]}
